Results on nine compounds are retold here after patent publication US5599791A, “Amides of antibiotic GE 2270 factors” (Gruppo Lepetit SPA, priority 1991, dated 1997).

One test has as its system Prot. vulgaris ATCC 881. The test is described as follows: MIC, microbroth dilution. Particulars: inocula 10^4 to 10^5 CFU/ml, Iso-Sensitest broth, 18-24 h, 37° C. The class given is cell-based, Proteus vulgaris. Here is the method: (§1) MIC for Propionibacterium aches, and Bacteroides fragilis are determined by agar dilution (inocula 10^4 /10^5 CFU/spot). MIC for other organisms are determined by microbroth dilution (inocula 10^4 to 10^5 CFU/ml). Incubation times are 18-24 h, except for Haemophilus influenzae, P. acnes, B. fragilis (48 h). All organisms are incubated at 37° C.; H. influenzae is incubated in a 5% CO2 atmosphere, anaerobes in an anaerobic gas mixture. Media used are: Iso-Sensitest broth (Oxoid) (Staphylococci, Streptococcus faecalis, Escherichia coli, Proteus vulgaris; brain heart infusion broth (Difco)+1% Supplement C (Difco) (H. influenzae); The minimal inhibitory concentrations (MIC, microgram/ml) for some microorganisms are reported below in Table VII.
(In general: Broth dilution looks for growth in wells or tubes with falling amounts of substance.)

Test [1] has as its system Prop. acnes L1014 ATCC 6919. The test is described as follows: MIC, agar dilution. Conditions: inocula 10^4 /10^5 CFU/spot, 48 h, 37° C., anaerobic gas mixture. The class given is cell-based, P. acnes. Here is the method:
as §1
In general terms: Agar dilution tests growth on a series of plates holding different concentrations.

The test system of the next test is Esch. coli L47 SKF 12140. The test is described as follows: MIC, microbroth dilution. The class given is cell-based, Escherichia coli. Particulars: inocula 10^4 to 10^5 CFU/ml, Iso-Sensitest broth, 18-24 h, 37° C. Here is the method:
as §1

Test [2] deals with Bact. fragilis L1010 ATCC 23745. The test is described as follows: MIC, agar dilution. The class given is cell-based, Bacteroides fragilis. Particulars: inocula 10^4 /10^5 CFU/spot, 48 h, 37° C., anaerobic gas mixture. Here is the method: as §1
Test [3] has as its system Haemophilus Influenzae type B. The test is described as follows: MIC, microbroth dilution. The class given is cell-based. Conditions: brain heart infusion broth +1% Supplement C, 48 h, 37° C., 5% CO2. Here is the method: as §1
The next test deals with Staph. haemolyticus L602. The test is described as follows: MIC, microbroth dilution. Particulars: inocula 10^4 to 10^5 CFU/ml, Iso-Sensitest broth, 18-24 h, 37° C. The class given is cell-based. Here is the method:
as §1

The next test concerns Staph. aureus L165 Tour. The test is described as follows: MIC, microbroth dilution. Particulars: inocula 10^4 to 10^5 CFU/ml, Iso-Sensitest broth, 18-24 h, 37° C. The class given is cell-based. Here is the method:
as §1

The test system of test [4] is Strep. pneumoniae L44 UC41. The test is described as follows: MIC, microbroth dilution. Conditions: inocula 10^4 to 10^5 CFU/ml, 18-24 h, 37° C. The class given is cell-based. Here is the method:
as §1

Test [5] concerns Staph. epidermidis L147 ATCC 12228. The test is described as follows: MIC, microbroth dilution. The class given is cell-based. Conditions: inocula 10^4 to 10^5 CFU/ml, Iso-Sensitest broth, 18-24 h, 37° C. Here is the method: as §1
In test [6] the test system is Strep. faecalis L149 ATCC 7080. The test is described as follows: MIC, microbroth dilution. Conditions: inocula 10^4 to 10^5 CFU/ml, Iso-Sensitest broth, 18-24 h, 37° C. The class given is cell-based, Streptococcus faecalis. Here is the method: as §1

Bounds are passed on as bounds.

Consider `CNC(=O)CC1NC(=O)c2nc(sc2COC)C(C(C)C)NC(=O)c2csc(n2)-c2ccc(-c3nc(C(=O)NCCCC(=O)O)cs3)nc2-c2csc(n2)-c2csc(n2)C(C(O)c2ccccc2)NC(=O)CNC(=O)c2nc1sc2C` (stereo not drawn) [Compound 18], for which the MIC is over 128 microgram/ml with Prot. vulgaris ATCC 881; 0.016 microgram/ml in test [1]; over 128 microgram/ml with Esch. coli L47 SKF 12140; 2 microgram/ml in test [2]; 2 microgram/ml in test [3]; 1 microgram/ml against Staph. haemolyticus L602. Also, the MIC came to 0.25 microgram/ml in the test on Staph. aureus L165 Tour, 1 microgram/ml in test [4], 0.25 microgram/ml in test [5] and 0.13 microgram/ml in test [6].

Take `CNC(=O)CC1NC(=O)c2nc(sc2COC)C(C(C)C)NC(=O)c2csc(n2)-c2ccc(-c3nc(C(=O)NC(Cc4ccccc4)C(=O)O)cs3)nc2-c2csc(n2)-c2csc(n2)C(C(O)c2ccccc2)NC(=O)CNC(=O)c2nc1sc2C` (stereo not drawn) [Compound 7]: the MIC against Prot. vulgaris ATCC 881 was over 128 microgram/ml; in [1] it was under 0.13 microgram/ml; against Esch. coli L47 SKF 12140, over 128 microgram/ml; in [2], over 128 microgram/ml; in test [3], 128 microgram/ml; in the test on Staph. haemolyticus L602, 4 microgram/ml. For the same compound, the MIC in the test on Staph. aureus L165 Tour is listed as 0.25 microgram/ml; in test [4], 4 microgram/ml; in [5] it was 0.5 microgram/ml; in test [6] it was over 0.13 microgram/ml.

Take `CNC(=O)CC1NC(=O)c2nc(sc2COC)C(C(C)C)NC(=O)c2csc(n2)-c2ccc(-c3nc(C(=O)NCCCCCC(=O)O)cs3)nc2-c2csc(n2)-c2csc(n2)C(C(O)c2ccccc2)NC(=O)CNC(=O)c2nc1sc2CO` (stereo not drawn) [Compound 42]: the MIC against Prot. vulgaris ATCC 881 is given as over 128 microgram/ml; in [1], 0.016 microgram/ml; with Esch. coli L47 SKF 12140 it was over 128 microgram/ml; in test [2], over 128 microgram/ml; in test [3] it was 4 microgram/ml; with Staph. haemolyticus L602, 0.5 microgram/ml. In addition, the MIC in the test on Staph. aureus L165 Tour is 0,13 microgram/ml; in test [4], 1 microgram/ml; in test [5], 0,13 microgram/ml; in test [6], 0.13 microgram/ml.

Regarding `CNC(=O)CC1NC(=O)c2nc(sc2COC)C(C(C)C)NC(=O)c2csc(n2)-c2ccc(-c3nc(C(=O)NCC=O)cs3)nc2-c2csc(n2)-c2csc(n2)C(C(O)c2ccccc2)NC(=O)CNC(=O)c2nc1sc2C` (stereo not drawn) [Compound 37], the MIC is over 128 microgram/ml with Prot. vulgaris ATCC 881; 0.004 microgram/ml in test [1]; over 128 microgram/ml with Esch. coli L47 SKF 12140; over 128 microgram/ml in test [2]; over 128 microgram/ml in test [3]; 0.13 microgram/ml with Staph. haemolyticus L602. Besides, the MIC against Staph. aureus L165 Tour was 0.03 microgram/ml; in test [4] it was over 128 microgram/ml; in test [5], 0.06 microgram/ml; in test [6], 0.06 microgram/ml.

Turning to `CNC(=O)CC1NC(=O)c2nc(sc2COC)C(C(C)C)NC(=O)c2csc(n2)-c2ccc(-c3nc(C(=O)NCCCCCCCC(=O)O)cs3)nc2-c2csc(n2)-c2csc(n2)C(C(O)c2ccccc2)NC(=O)CNC(=O)c2nc1sc2C` (stereo not drawn) [Compound 20], the MIC was over 128 microgram/ml with Prot. vulgaris ATCC 881; 0.03 microgram/ml in test [1]; over 128 microgram/ml against Esch. coli L47 SKF 12140; over 128 microgram/ml in [2]; over 128 microgram/ml in test [3]; 0.25 microgram/ml in the test with Staph. haemolyticus L602. The MIC in the test on Staph. aureus L165 Tour is 0.25 microgram/ml; in [4], 2 microgram/ml; in test [5], 0.25 microgram/ml; in test [6] it was under 0.13 microgram/ml.

On to `CNC(=O)CC1NC(=O)c2nc(sc2COC)C(C(C)C)NC(=O)c2csc(n2)-c2ccc(-c3nc(C(=O)NCCN(C)C)cs3)nc2-c2csc(n2)-c2csc(n2)C(C(O)c2ccccc2)NC(=O)CNC(=O)c2nc1sc2C` (stereo not drawn) [Compound 32], for which the MIC in the test on Prot. vulgaris ATCC 881 is over 128 microgram/ml; in [1], 0.13 microgram/ml; in the test with Esch. coli L47 SKF 12140, over 128 microgram/ml; in [2], over 128 microgram/ml; in test [3], over 128 microgram/ml; in the test on Staph. haemolyticus L602, 0.5 microgram/ml. The MIC stood at 0.5 microgram/ml in the test on Staph. aureus L165 Tour, 1 microgram/ml in test [4], 0.5 microgram/ml in test [5] and 0.25 microgram/ml in test [6].

Turning to `CNC(=O)CC1NC(=O)c2nc(sc2COC)C(C(C)C)NC(=O)c2csc(n2)-c2ccc(-c3nc(C(=O)NCCCCCC(=O)O)cs3)nc2-c2csc(n2)-c2csc(n2)C(C(O)c2ccccc2)NC(=O)CNC(=O)c2nc1sc2C` (stereo not drawn) [Compound 19], the MIC with Prot. vulgaris ATCC 881 was over 128 microgram/ml; in test [1] it was 0.008 microgram/ml; against Esch. coli L47 SKF 12140 it was over 128 microgram/ml; in [2] it was 4 microgram/ml; in [3] it was 2 microgram/ml; in the test on Staph. haemolyticus L602, 0.25 microgram/ml. Moreover, the MIC was found to be 0.06 microgram/ml in the test with Staph. aureus L165 Tour, 0.25 microgram/ml in test [4], 0.06 microgram/ml in [5] and 0.06 microgram/ml in test [6].

Turning to `CNC(=O)CC1NC(=O)c2nc(sc2COC)C(C(C)C)NC(=O)c2csc(n2)-c2ccc(-c3nc(C(=O)NCCCN)cs3)nc2-c2csc(n2)-c2csc(n2)C(C(O)c2ccccc2)NC(=O)CNC(=O)c2nc1sc2C.O=C(O)C(F)(F)F` (stereo not drawn) [Compound 36], the MIC with Prot. vulgaris ATCC 881 is recorded as over 128 microgram/ml; in [1] it was 0.06 microgram/ml; against Esch. coli L47 SKF 12140, over 128 microgram/ml; in test [2], over 128 microgram/ml; in test [3], over 128 microgram/ml; in the test on Staph. haemolyticus L602, 0.13 microgram/ml. For the same compound, the MIC against Staph. aureus L165 Tour was 0.13 microgram/ml; in [4], 4 microgram/ml; in test [5], 0.13 microgram/ml; in test [6] it was 0.13 microgram/ml.

For `CNC(=O)CC1NC(=O)c2nc(sc2COC)C(C(C)C)NC(=O)c2csc(n2)-c2ccc(-c3nc(C(=O)NCCNCCC(=O)O)cs3)nc2-c2csc(n2)-c2csc(n2)C(C(O)c2ccccc2)NC(=O)CNC(=O)c2nc1sc2C` (stereo not drawn) [Compound 38], the MIC against Prot. vulgaris ATCC 881 is over 128 microgram/ml; in test [1] it was 0.25 microgram/ml; against Esch. coli L47 SKF 12140 it was over 128 microgram/ml; in test [2], over 128 microgram/ml; in [3] it was over 128 microgram/ml; against Staph. haemolyticus L602, 64 microgram/ml. The MIC is given as 32 microgram/ml against Staph. aureus L165 Tour, over 128 microgram/ml in test [4], 32 microgram/ml in test [5] and 16 microgram/ml in [6].
